The source made the active and inactive calls.
Experiments:
[1] = A549 cell cytotoxicity, dose response, cytotoxicity control, plate reader, cherry-pick, antagonist series (AID 743412); type: functional, cell-based
[2] = LGR2 antagonists, dose response, cell-based, HEK293, CRE-luciferase reporter, cherry pick, set 2 (AID 743343); type: functional;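 note: transfected cells were stimulated with diluted bursicon conditioned medium after compound addition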
[3] = HepG2 cell cytotoxicity, dose response, cytotoxicity control, plate reader, cherry-pick, antagonist series (AID 743416); type: functional, cell-based
[4] = MC4R antagonists, dose response, counter-screen for LGR2 antagonist project, cell-based, plate reader, cherry pick (AID 743444); type: functional;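 note: transfected HEK 293 cells stimulated with alpha-MSH peptide; potency of inhibitors of the alpha-MSH evoked signal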
fMet-Leu-Phe receptor = biological target: T1, fMet-Leu-Phe receptor (Homo sapiens, UniProt P21462); experiment: FPR ligands, dose response (AID 519); type: functional
T1 sequence (P21462 whole entry): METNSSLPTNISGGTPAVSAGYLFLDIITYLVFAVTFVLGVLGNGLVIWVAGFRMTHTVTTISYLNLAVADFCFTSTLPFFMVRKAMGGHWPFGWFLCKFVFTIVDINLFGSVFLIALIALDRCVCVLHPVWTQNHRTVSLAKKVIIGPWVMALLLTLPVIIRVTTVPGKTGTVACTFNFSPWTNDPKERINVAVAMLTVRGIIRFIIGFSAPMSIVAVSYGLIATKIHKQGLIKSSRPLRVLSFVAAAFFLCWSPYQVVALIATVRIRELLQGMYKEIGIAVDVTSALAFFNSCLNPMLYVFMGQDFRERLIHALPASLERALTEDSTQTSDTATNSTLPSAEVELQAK

[5] = biological target: T2, Histone-lysine N-methyltransferase NSD2 (Homo sapiens, UniProt O96028); type: biochemical
T2 sequence (O96028 whole entry): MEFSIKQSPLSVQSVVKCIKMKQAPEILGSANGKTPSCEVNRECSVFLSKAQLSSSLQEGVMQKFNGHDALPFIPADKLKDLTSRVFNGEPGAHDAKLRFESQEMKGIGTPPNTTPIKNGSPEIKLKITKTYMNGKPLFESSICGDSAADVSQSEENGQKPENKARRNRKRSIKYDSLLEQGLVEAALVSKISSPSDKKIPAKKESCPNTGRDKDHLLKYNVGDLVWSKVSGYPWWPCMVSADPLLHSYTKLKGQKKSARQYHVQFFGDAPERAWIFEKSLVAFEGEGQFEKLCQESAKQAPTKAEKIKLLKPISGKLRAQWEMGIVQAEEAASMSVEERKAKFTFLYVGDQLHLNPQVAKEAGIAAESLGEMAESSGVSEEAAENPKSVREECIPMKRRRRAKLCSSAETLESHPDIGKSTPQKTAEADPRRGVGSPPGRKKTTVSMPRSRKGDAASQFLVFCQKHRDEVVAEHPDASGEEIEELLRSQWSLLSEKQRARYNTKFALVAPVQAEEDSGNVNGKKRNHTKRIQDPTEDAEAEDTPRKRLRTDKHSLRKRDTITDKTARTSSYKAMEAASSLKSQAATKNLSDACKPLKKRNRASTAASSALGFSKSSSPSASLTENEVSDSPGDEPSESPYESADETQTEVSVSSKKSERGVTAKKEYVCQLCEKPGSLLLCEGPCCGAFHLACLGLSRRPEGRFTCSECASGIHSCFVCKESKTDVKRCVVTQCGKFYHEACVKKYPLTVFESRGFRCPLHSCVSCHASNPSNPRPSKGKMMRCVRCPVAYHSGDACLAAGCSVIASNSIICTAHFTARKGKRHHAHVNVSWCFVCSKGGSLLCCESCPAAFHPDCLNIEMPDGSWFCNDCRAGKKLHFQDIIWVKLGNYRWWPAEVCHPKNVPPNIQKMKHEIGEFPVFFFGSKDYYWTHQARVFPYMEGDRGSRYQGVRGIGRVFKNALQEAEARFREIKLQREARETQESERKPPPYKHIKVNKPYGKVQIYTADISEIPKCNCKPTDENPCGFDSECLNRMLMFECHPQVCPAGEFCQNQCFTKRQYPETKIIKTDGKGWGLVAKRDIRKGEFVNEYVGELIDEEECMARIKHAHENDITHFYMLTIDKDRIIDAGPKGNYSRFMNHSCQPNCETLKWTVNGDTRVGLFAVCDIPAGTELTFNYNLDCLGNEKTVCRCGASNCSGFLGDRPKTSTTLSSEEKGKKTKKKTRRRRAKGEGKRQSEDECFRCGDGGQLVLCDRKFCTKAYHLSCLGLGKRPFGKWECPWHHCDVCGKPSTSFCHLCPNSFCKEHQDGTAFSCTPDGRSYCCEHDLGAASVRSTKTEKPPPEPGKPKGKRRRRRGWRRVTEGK

Streptococcus = experiment: Group A Streptococcus viability loss, dose response, counter-screen for streptokinase expression inhibitor project, luminescence, BacTiterGlo (AID 1915); type: functional, organism-based;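 note: potency for reduction of bacterial viability or growth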
[6] = tested on: Streptococcus sp. 'group A'; experiment: growth inhibition of control SK(-) GAS strain, dose response, counter-screen for streptokinase expression inhibitor project, luminescence, kanamycin, BacTiterGlo, confirmation (AID 1900); type: functional, organism-based
Albumin = Albumin (Bos taurus, UniProt P02769); experiment: Counterscreen for inhibitors of T-cell receptor (TCR)-CD3 interaction: Fluorescence-based biochemical high throughput dose response assay to identify inhibitors of T-cell receptor (TCR)-CD3 interaction using a TAMRA-labeled BSA probe.; type: functional
Streptokinase A = biological target: T3, Streptokinase A (Streptococcus pyogenes serotype M1, UniProt P10520); experiment: S. pyogenes streptokinase expression inhibitors, potency, dose response, plasminogen activation absorbance, OD405 (AID 1914); type: functional, Streptococcus pyogenes M1 GAS;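 note: secreted streptokinase activity via plasminogen activation per viability signal from cell pellet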
T3 sequence (P10520 whole entry): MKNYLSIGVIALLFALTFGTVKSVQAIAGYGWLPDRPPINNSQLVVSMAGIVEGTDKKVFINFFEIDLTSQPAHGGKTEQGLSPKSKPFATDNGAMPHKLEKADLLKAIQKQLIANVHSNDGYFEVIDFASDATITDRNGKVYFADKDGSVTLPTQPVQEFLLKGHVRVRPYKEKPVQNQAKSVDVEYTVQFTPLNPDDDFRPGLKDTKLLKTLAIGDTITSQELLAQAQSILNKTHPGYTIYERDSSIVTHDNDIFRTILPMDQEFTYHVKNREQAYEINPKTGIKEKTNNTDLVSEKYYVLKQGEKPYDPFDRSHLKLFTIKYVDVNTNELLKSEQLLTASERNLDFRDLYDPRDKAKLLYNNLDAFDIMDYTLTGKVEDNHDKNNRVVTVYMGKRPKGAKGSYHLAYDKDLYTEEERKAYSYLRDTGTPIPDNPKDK

[7] = growth suppression of beta-catenin-knockout colon cells, dose response, cell-based, HCT116, human colon tumor (AID 1045); type: functional;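 note: HCT116 colon tumor cells with beta catenin knocked out; cells exposed to compound for 60 hours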
[8] = growth suppression of PTEN-null colon cells, dose response, cell-based, HCT116 PTEN knockout (AID 1047); type: functional;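 note: HCT116 colon tumor cells with PTEN knocked out; cells exposed to compound for 60 hours before readout; potency for loss of cell viability measured by luminescence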
[9] = human group III sPLA2 inhibitors, dose response, biochemical, QFRET, IC50 (AID 743457);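 note: green fluorescence rise as the enzyme cleaves BODIPY PC-A2 in liposomes; potency for inhibition of the enzyme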
[10] = NIH:OVCAR-3 ovarian cancer cell cytotoxicity, dose response, PAX8 inhibitor project, plate reader, dry powder samples (AID 743044); type: functional, cell-based
Paired box protein Pax-8 = Paired box protein Pax-8 (Homo sapiens, UniProt Q06710); experiment: inhibitors of PAX8-driven TPO luciferase reporter, dose response, RMG-I cells, cherry-pick (AID 687027); type: functional, cell-based;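 note: luciferase reporter driven by Pax8 target thyroperoxidase promoter measured by SteadyGlo luminescence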
[11] = IGROV1 ovarian cancer cell cytotoxicity, dose response, PAX8 inhibitor project, plate reader, dry powder samples (AID 743043); type: functional, cell-based; details: IGROV-1
[12] = biological target: T4, Replicative DNA helicase DnaB (Mycobacterium tuberculosis, UniProt P9WMR3); experiment: DnaB intein splicing inhibitors, dose response, biochemical, cell-free fluorescence (AID 449749); type: functional
T4 sequence (P9WMR3 whole entry): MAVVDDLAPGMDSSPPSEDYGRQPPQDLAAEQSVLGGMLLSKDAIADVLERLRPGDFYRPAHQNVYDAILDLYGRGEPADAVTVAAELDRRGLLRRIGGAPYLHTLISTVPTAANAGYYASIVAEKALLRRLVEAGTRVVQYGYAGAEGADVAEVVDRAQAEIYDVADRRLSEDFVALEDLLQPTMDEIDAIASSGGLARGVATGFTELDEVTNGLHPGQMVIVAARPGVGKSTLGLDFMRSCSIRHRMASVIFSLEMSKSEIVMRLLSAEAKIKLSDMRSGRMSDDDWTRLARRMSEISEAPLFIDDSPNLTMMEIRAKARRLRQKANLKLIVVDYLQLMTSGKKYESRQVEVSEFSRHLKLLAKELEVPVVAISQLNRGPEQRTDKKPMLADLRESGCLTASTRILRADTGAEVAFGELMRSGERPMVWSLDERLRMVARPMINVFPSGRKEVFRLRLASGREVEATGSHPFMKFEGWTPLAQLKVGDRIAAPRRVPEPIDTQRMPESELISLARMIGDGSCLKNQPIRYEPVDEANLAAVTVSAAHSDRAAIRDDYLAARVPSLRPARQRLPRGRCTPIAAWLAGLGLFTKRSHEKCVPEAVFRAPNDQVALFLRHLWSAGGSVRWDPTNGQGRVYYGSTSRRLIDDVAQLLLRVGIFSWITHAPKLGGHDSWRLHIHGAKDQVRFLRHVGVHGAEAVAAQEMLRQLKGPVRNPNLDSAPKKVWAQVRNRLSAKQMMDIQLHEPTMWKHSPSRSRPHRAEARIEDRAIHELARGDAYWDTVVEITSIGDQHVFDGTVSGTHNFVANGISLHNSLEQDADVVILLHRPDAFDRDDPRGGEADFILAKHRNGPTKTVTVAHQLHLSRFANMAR

[13] = biological target: T5, Tyrosyl-DNA phosphodiesterase 2 (Homo sapiens, UniProt O95551); experiment: human TDP2 enzyme inhibitors, dose response, biochemical, epi absorbance, IC50 (AID 743297)
T5 sequence (O95551 whole entry): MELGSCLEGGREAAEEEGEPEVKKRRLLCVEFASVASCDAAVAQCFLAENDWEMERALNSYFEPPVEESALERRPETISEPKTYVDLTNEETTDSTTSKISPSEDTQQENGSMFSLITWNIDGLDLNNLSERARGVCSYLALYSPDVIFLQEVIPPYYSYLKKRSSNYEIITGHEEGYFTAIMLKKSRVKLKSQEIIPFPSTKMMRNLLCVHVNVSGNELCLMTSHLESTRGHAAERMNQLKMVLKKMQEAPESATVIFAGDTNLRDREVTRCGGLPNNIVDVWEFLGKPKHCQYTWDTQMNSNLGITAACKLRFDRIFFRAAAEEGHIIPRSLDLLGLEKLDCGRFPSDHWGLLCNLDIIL

Genome polyprotein = Genome polyprotein (dengue virus type 2, UniProt P29990); experiment: Dengue-2 NS5 methyltransferase inhibitors, primary screen, biochemical, confirmation dose response (AID 588689); type: functional
Protein RecA = biological target: T6, Protein RecA (Mycobacterium tuberculosis, UniProt P9WHJ3); experiment: Fluorescence Cell-Free Homogeneous Dose Retest to Identify Inhibitors of RecA-Intein Splicing Activity. [Related pubchem assays (depositor defined):AID2097, AID2223, AID489010, AID492950]; type: functional
T6 sequence (P9WHJ3 whole entry): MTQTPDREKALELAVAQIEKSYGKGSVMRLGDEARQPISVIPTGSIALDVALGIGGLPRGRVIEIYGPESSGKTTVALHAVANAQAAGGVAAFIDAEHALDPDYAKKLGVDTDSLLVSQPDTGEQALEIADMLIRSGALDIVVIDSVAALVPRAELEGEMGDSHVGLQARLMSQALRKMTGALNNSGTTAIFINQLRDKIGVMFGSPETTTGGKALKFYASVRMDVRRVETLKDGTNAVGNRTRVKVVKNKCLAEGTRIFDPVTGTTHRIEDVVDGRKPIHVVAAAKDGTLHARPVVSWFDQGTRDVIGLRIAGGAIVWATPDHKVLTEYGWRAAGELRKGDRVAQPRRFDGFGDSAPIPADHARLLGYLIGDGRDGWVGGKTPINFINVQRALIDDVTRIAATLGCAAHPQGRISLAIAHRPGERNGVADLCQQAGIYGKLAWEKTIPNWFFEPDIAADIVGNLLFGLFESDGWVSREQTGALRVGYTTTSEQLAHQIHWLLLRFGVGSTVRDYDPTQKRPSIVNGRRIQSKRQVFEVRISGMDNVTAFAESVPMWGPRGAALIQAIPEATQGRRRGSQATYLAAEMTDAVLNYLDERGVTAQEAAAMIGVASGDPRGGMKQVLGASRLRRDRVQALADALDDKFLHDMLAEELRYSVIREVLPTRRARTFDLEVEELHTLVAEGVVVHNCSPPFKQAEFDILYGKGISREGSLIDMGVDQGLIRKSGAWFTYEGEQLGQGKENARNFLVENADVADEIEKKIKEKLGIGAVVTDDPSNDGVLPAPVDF

Chain of Genome polyprotein (P29990 2492-3391 limits assumed): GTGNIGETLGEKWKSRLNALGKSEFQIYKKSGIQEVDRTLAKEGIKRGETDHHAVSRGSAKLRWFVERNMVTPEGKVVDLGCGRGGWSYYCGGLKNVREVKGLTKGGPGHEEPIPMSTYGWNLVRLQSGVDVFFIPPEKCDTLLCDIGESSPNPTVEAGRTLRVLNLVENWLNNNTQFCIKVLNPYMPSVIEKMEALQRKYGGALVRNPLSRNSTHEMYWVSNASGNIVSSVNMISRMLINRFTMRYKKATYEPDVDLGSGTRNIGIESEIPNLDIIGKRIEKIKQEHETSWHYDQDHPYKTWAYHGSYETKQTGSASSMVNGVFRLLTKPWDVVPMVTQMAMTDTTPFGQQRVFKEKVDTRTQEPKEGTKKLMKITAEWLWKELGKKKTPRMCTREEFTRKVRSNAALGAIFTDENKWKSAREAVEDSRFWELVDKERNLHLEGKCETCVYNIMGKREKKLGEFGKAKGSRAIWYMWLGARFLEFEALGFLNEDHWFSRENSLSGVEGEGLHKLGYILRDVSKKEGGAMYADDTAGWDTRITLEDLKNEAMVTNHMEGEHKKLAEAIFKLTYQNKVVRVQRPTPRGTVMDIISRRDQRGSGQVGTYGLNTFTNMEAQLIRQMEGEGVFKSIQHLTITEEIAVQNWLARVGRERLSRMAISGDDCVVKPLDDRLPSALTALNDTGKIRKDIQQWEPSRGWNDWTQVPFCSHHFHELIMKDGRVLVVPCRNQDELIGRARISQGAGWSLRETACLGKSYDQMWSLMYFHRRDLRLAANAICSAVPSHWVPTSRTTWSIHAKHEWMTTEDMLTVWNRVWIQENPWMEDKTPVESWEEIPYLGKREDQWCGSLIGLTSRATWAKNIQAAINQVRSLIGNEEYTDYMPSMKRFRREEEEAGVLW
Chain of Albumin (P02769 whole entry): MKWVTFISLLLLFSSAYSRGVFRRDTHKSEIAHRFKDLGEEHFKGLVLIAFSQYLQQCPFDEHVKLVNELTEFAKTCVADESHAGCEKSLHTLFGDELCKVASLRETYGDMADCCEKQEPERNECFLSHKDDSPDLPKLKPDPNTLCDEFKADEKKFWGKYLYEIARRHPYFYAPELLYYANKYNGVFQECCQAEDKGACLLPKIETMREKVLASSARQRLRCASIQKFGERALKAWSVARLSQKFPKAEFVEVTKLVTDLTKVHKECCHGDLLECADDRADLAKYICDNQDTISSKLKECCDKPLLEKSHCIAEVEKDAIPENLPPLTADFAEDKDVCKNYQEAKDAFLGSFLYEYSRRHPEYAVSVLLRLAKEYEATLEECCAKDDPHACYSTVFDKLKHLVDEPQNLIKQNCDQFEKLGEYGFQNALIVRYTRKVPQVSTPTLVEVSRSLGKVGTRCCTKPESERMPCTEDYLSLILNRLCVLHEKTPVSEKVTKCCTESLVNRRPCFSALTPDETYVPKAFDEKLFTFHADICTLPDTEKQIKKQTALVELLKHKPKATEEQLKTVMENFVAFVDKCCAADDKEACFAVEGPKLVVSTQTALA
Chain of Paired box protein Pax-8 (Q06710 whole entry): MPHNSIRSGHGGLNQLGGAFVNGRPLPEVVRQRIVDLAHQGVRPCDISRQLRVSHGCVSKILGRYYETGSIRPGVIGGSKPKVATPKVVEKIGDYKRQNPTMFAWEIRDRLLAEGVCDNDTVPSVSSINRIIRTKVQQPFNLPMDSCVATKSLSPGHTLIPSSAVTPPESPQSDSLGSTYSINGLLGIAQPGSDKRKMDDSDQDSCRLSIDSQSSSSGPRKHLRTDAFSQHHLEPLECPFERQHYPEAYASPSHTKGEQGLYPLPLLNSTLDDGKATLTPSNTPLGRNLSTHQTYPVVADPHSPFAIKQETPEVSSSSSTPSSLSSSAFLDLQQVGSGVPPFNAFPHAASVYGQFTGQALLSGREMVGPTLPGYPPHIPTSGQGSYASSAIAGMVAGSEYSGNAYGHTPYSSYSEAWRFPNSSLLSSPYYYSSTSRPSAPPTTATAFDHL

SMILES: N#C[C@@H]1[C@H](c2ccc(C#Cc3ccccc3F)cc2)[C@@H](CO)N1C(=O)C1CCCC1
- AC50 [1]: > 52 µM (inactive)
- AC50 [2]: 8.84 µM (active)
- AC50 [3]: 39.6 µM (active)
- AC50 [4]: 6.34 µM (active)

SMILES: COCCCN1C(=O)C(O)=C(C(=O)c2ccccc2)C1c1ccc2c(c1)OCO2 (configuration not stated)
- Ki (fMet-Leu-Phe receptor): 29.6 µM (inactive)

SMILES: O=C1Nc2c(Cl)cccc2C1=O
- AC50 [5]: 9.86 µM (active)

SMILES: CCCCCC(=O)NC(=S)NC1C2CC3CC(C2)CC1C3 (configuration not stated)
- EC50 (Streptococcus): 27.9 µM (active)
- EC50 [6]: 3.42 µM (active)
- IC50 (Albumin): > 94.1 µM (inactive)
- EC50 (Streptokinase A): 11.5 µM (active)

SMILES: Cc1ccc(C)c(N2CCN(S(=O)(=O)c3c(C)noc3/C=C/N(C)C)CC2)c1
- EC50 [7]: 32.6 µM (active)
- EC50 [8]: 26.5 µM (active)
- IC50 [9]: > 122 µM (inactive)

SMILES: C[C@H](CO)N1C[C@H](C)[C@@H](CN(C)Cc2ccccc2)Oc2ccc(NC(=O)Nc3ccc(C(F)(F)F)cc3)cc2CC1=O
- AC50 [10]: 51.8 µM (active)
- AC50 (Paired box protein Pax-8): 9.3 µM (active)
- AC50 [11]: 46.6 µM (active)

SMILES: Cc1oc2cc(O)cc(O)c2c(=O)c1-c1ccc2c(c1)OCCCO2
- Ki (fMet-Leu-Phe receptor): > 66.7 µM (inactive)

SMILES: Cc1ccc(N=C(S)NNC(=O)c2ccccc2O)c(C)c1
- IC50 [9]: > 122 µM (inactive)

SMILES: COc1cccc(C(c2c(C)nn(-c3ccccc3)c2O)c2c(C)nn(-c3ccccc3)c2O)c1OC
- AC50 [12]: 1.25 µM (active)
- IC50 [13]: 24.7 µM (inactive)
- IC50 (Genome polyprotein): 61.1 µM (active)
- EC50 (Protein RecA): 0.81 µM (active)
